Measured values published in ChEMBL document CHEMBL6127156, “Azaspirooctane-carboxylates as Novel Activators/Modulators of M4 for the Treatment of Alzheimer's Disease and Parkinson's Disease” (ACS Med Chem Lett, 2024).
pEC50: −log10 of the molar value.

Tests used:
Format in all cases: functional, cell-based
[1] = target: T1, Muscarinic acetylcholine receptor M2 (Homo sapiens, UniProt P08172); test: Modulatory activity at M2 receptor (unknown origin) expressed in CHO-K1 cells assessed as cAMP production by TR-FRET analysis
T1 sequence (P08172 whole entry): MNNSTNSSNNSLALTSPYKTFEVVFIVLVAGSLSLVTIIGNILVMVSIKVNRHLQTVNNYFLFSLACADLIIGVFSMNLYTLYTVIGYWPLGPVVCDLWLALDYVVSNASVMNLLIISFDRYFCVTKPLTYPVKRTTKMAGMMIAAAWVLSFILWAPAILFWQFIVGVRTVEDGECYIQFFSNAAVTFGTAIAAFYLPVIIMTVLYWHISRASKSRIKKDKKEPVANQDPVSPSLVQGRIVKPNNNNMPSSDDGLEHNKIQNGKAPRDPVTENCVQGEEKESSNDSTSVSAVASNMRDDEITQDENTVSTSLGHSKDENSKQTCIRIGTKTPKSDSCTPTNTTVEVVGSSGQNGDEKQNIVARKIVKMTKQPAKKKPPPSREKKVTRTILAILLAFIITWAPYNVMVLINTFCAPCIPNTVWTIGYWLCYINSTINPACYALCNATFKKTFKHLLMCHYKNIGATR

[2] = target: T2, Muscarinic acetylcholine receptor M4 (Homo sapiens, UniProt P08173); test: Modulatory activity at M4 receptor (unknown origin) expressed in CHO-K1 cells assessed as cAMP production by TR-FRET analysis
T2 sequence (P08173 whole entry): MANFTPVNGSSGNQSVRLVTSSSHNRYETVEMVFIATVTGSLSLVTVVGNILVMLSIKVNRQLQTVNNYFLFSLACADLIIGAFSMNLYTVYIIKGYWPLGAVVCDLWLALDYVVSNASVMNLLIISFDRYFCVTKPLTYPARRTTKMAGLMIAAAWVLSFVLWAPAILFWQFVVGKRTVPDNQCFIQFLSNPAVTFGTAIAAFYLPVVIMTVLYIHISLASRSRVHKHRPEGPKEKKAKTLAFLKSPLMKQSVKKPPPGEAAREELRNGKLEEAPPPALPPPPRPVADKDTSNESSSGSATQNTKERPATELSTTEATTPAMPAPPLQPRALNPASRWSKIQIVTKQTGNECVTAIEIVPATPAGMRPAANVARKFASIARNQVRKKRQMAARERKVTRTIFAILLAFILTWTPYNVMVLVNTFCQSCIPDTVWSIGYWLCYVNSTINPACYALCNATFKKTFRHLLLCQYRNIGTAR

[3] = target: Muscarinic acetylcholine receptor M3 (Homo sapiens, UniProt P20309); test: Modulatory activity at M3 receptor (unknown origin) expressed in CHO-K1 cells assessed as intracellular calcium flux incubated for 30 mins by Fluo-8 dye based FLIPR analysis
Chain of Muscarinic acetylcholine receptor M3 (P20309 whole entry): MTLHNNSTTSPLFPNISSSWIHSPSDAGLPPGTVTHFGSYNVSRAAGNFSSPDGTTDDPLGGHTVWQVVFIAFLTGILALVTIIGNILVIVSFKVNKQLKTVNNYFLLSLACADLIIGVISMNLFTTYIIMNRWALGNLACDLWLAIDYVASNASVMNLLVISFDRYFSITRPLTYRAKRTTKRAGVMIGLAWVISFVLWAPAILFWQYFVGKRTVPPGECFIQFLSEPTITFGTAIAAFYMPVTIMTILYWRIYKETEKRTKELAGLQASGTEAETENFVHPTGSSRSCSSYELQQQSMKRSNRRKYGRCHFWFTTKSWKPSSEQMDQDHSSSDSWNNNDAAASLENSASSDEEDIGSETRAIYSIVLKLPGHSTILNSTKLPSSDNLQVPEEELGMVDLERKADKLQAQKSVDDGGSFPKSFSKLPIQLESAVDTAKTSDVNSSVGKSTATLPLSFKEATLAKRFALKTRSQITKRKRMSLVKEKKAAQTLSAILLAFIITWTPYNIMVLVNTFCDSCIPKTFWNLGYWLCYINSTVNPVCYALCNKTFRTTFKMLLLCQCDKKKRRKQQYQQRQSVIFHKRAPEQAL

[4] = target: T3, Muscarinic acetylcholine receptor M5 (Homo sapiens, UniProt P08912); test: Modulatory activity at M5 receptor (unknown origin) expressed in CHO-K1 cells assessed as intracellular calcium flux incubated for 30 mins by Fluo-8 dye based FLIPR analysis
T3 sequence (P08912 whole entry): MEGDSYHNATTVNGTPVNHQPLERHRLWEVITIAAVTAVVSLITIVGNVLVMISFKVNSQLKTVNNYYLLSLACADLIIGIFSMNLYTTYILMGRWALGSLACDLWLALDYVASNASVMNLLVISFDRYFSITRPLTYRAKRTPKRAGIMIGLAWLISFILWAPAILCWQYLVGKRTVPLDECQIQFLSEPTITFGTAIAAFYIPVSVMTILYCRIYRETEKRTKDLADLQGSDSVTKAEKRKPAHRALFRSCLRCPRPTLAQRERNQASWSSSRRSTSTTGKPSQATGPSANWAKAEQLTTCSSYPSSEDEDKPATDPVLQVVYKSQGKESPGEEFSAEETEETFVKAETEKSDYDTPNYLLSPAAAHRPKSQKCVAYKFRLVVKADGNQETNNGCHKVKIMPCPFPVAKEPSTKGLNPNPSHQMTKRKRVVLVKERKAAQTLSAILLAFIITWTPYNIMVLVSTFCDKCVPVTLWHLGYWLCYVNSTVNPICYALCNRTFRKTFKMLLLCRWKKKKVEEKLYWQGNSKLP

[5] = target: T4, Muscarinic acetylcholine receptor M1 (Homo sapiens, UniProt P11229); test: Modulatory activity at M1 receptor (unknown origin) expressed in CHO-K1 cells assessed as intracellular calcium flux incubated for 30 mins by Fluo-8 dye based FLIPR analysis
T4 sequence (P11229 whole entry): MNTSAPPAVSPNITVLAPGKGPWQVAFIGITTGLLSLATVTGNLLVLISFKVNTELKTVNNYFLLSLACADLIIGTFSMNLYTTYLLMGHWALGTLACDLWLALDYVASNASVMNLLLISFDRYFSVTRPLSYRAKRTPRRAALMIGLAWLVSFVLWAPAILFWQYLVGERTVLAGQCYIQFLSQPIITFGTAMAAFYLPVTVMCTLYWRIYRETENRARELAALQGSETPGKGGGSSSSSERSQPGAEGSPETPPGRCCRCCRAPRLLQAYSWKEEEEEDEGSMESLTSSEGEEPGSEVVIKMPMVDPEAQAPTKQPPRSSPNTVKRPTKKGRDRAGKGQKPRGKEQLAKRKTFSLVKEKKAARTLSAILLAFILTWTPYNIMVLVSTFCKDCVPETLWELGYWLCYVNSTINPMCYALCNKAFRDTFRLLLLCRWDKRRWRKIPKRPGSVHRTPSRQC

| SMILES | pEC50 [1] | pEC50 [2] | pEC50 [3] | pEC50 [4] | pEC50 [5] |
| --- | --- | --- | --- | --- | --- |
| CCOC(=O)N1CC2(CC[C@@H](N3CCN(c4cc(F)cnc4-c4ccc(=O)[nH]c4)CC3)C2)C1 | < 5.00 | > 7.70 | < 5.00 | 7.70 | > 7.70 |
| CCOC(=O)N1CC2(CC[C@H](N3CCC(O)(c4cc(F)cnc4-c4cnccn4)CC3)C2)C1 | < 5.00 | 7.70 |  |  |  |
| CCOC(=O)N1CC2(CC[C@@H](N3CCC(O)(c4cc(F)cnc4-c4cnccn4)CC3)C2)C1 | < 5.00 | > 7.70 |  |  |  |
| CCOC(=O)N1CC2(CC[C@@H](N3CCN(c4cc(F)cnc4-c4cccc(CO)c4)CC3)C2)C1 |  | > 7.70 | < 5.00 | < 5.00 | < 5.00 |
| CCOC(=O)N1CC2(CC[C@@H](N3CCN(c4cc(F)cnc4-c4cscn4)CC3)C2)C1 | 7.00 | > 7.70 |  |  |  |
| CCOC(=O)N1CC2(CC[C@@H](N3CCN(c4cc(F)cnc4-c4ccc(=O)n(C)c4)CC3)C2)C1 | < 5.00 | > 7.70 | < 5.00 | < 5.00 | < 5.00 |
| CCOC(=O)N1CC2(CC[C@@H](N3CCN(c4cc(F)cnc4-c4cnn(C(C)C)c4)CC3)C2)C1 | 7.00 | > 7.70 | < 5.00 | < 5.00 | < 5.00 |
| CCOC(=O)N1CC2(CC[C@@H](N3CCN(c4cc(F)cnc4-c4cncc(OC)c4)CC3)C2)C1 | < 5.00 | > 7.70 | < 5.00 | < 5.00 | > 7.70 |

The remaining lines, values ahead:

| pEC50 [1] | pEC50 [2] | pEC50 [3] | pEC50 [4] | pEC50 [5] | SMILES |
| --- | --- | --- | --- | --- | --- |
| < 5.00 | > 7.70 | < 5.00 | < 5.00 | > 7.70 | CCOC(=O)N1CC2(CC[C@@H](N3CCN(c4cc(F)cnc4-c4cncs4)CC3)C2)C1 |
| > 7.70 | > 7.70 | < 5.00 | < 5.00 | < 5.00 | CCOC(=O)N1CC2(CC[C@@H](N3CCN(c4cc(F)cnc4-c4cnn(C(F)F)c4)CC3)C2)C1 |
| < 5.00 | > 7.70 | < 5.00 | 7.70 | < 5.00 | CCOC(=O)N1CC2(CC[C@@H](N3CCN(c4cccnc4-c4ccc(F)nc4)CC3)C2)C1 |
